This is an account of results in US9669034B2, “4-aryl-N-phenyl-1,3,5-triazin-2-amines containing a sulfoximine group” (BAYER INTELLECTUAL PROPERTY GMBH, priority 2011, dated 2017).

Assay [1] has as its system DU145, hormone-independent human prostate carcinoma cells. The experiment in a line: Proliferation assay (crystal violet), DU145. Format: cell-based. As to conditions: Homo sapiens, DU-145, DU145 cells, Method 3; read-out: Inhibition of DU145 cell proliferation, IC50. Here is the method: (§1) Cultivated tumour cells (NCI-H460, human non-small cell lung carcinoma cells, ATCC HTB-177; DU145, hormone-independent human prostate carcinoma cells, ATCC HTB-81; HeLa-MaTu, human cervical carcinoma cells, EPO-GmbH, Berlin; HeLa-MaTu-ADR, multidrug-resistant human cervical carcinoma cells, EPO-GmbH, Berlin; HeLa human cervical tumour cells, ATCC CCL-2; Caco-2 human colorectal carcinoma, ATCC HTB-37; B16F10 mouse melanoma cells, ATCC CRL-6475) were plated at a density of 5000 cells/well (DU145, HeLa-MaTu-ADR), 3000 cells/well (NCI-H460, HeLa-MaTu, HeLa), 1500 cells/well (Caco-2), or 1000 cells/well (B16 F10) in a 96-well multititer plate in 200 μL of their respective growth medium supplemented 10% fetal calf serum. After 24 hours, the cells of one plate (zero-point plate) were stained with crystal violet (see below), while the medium of the other plates was replaced by fresh culture medium (200 μL), to which the test substances were added in various concentrations (0 M, as well as in the range of […]; the final concentration of the solvent dimethylsulfoxide was 0.5%). The cells were incubated for 4 days in the presence of test substances. Cell proliferation was determined by staining the cells with crystal violet: the cells were fixed by adding 20 μL/measuring point of an 11% glutaric aldehyde solution for 15 minutes at room temperature. After three washing cycles of the fixed cells with water, the plates were dried at room temperature. The cells were stained by adding 100 μL/measuring point of a 0.1% crystal violet solution (pH 3.0). After three washing cycles of the stained cells with water, the plates were dried at room temperature. The dye was dissolved by adding 100 μL/measuring point of a 10% acetic acid solution. The absorbance was determined by photometry at a wavelength of 595 nm. The change of cell number, in percent, was calculated by normalization of the measured values to the absorbance values of the zero-point plate (=0%) and the absorbance of the untreated (0 M) cells (=100%). The IC50 values were determined by means of a 4 parameter fit.

For a further assay, the target named is CDK2/CycE (Homo sapiens (Human), UniProt P24941). Briefly: CDK2/CycE kinase assay (TR-FRET). Format: biochemical. The conditions noted are these: Method 2. From the text:
2. CDK2/CycE Kinase Assay:
CDK2/CycE—inhibitory activity of compounds of the present invention was quantified employing the CDK2/CycE TR-FRET assay as described in the following paragraphs:
Recombinant fusion proteins of GST and human CDK2 and of GST and human CycE, expressed in insect cells (Sf9) and purified by Glutathion-Sepharose affinity chromatography, were purchased from ProQinase GmbH (Freiburg, Germany). As substrate for the kinase reaction biotinylated peptide biotin-Ttds-[…]
On the technique in general: Time-resolved FRET reads energy transfer from a long-lived donor to a nearby acceptor.

In another assay the target is CDK9/CycT1 (Homo sapiens (Human), UniProt P50750). The experiment in a line: CDK9/CycT1 kinase assay (TR-FRET). The format is biochemical. The conditions noted are these: Method 1. From the text:
1. CDK9/CycT1 Kinase Assay:
CDK9/CycT1—inhibitory activity of compounds of the present invention was quantified employing the CDK9/CycT1 TR-FRET assay as described in the following paragraphs:
Recombinant full-length His-tagged human CDK9 and CycT1, expressed in insect cells and purified by Ni-NTA affinity chromatography, were purchased from Invitrogen (Cat. No PV4131). As substrate for the kinase reaction biotinylated peptide biotin-Ttds-[…]

For assay [2], the system named is HeLa human cervical tumour cells. The experiment in a line: Proliferation assay (crystal violet), HeLa. The format is cell-based. The conditions noted are these: Homo sapiens, HeLa, Method 3, read-out: Inhibition of HeLa cell proliferation, IC50. Here is the method: as §1
For assay [3], the system named is Caco-2 human colorectal carcinoma. Briefly: Proliferation assay (crystal violet), Caco-2. The format is cell-based. The conditions noted are these: Homo sapiens, Caco-2, Caco-2 cells, Method 3; read-out: Inhibition of Caco-2 cell proliferation, IC50. As to the method: as §1
Assay [4] relates to HeLa-MaTu-ADR, multidrug-resistant human cervical carcinoma cells. Briefly: Proliferation assay (crystal violet), HeLa-MaTu-ADR. Format: cell-based. As to conditions: Homo sapiens, HeLa, Method 3, read-out: Inhibition of HeLa/MaTu/ADR cell proliferation, IC50. As to the method:
as §1

The test system of assay [5] is NCI-H460, human non-small cell lung carcinoma cells. The experiment in a line: Proliferation assay (crystal violet), NCI-H460. Format: cell-based. As to conditions: Homo sapiens, NCI-H460, NCI-H460 cells, Method 3; read-out: Inhibition of NCI-H460 cell proliferation, IC50. As to the method:
as §1

The test system of assay [6] is B16F10 mouse melanoma cells. The experiment in a line: Proliferation assay (crystal violet), B16F10. Format: cell-based. The conditions noted are these: Mus musculus, B16-F10, B16F10 cells, Method 3; read-out: Inhibition of B16F10 cell proliferation, IC50. As to the method: as §1

Structures are written as SMILES.

Chain of CDK9/CycT1 (P50750 whole entry): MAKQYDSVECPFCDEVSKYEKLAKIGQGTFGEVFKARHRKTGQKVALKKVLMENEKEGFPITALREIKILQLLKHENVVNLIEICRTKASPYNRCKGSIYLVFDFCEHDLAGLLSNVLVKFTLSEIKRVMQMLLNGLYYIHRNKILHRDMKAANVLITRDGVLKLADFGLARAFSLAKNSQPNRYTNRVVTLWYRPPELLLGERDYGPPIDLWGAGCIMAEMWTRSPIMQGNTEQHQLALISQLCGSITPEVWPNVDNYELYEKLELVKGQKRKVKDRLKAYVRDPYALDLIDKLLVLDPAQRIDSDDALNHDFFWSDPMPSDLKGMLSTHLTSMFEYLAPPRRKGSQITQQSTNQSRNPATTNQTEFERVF
Chain of CDK9/CycT1 (O60563 whole entry partner): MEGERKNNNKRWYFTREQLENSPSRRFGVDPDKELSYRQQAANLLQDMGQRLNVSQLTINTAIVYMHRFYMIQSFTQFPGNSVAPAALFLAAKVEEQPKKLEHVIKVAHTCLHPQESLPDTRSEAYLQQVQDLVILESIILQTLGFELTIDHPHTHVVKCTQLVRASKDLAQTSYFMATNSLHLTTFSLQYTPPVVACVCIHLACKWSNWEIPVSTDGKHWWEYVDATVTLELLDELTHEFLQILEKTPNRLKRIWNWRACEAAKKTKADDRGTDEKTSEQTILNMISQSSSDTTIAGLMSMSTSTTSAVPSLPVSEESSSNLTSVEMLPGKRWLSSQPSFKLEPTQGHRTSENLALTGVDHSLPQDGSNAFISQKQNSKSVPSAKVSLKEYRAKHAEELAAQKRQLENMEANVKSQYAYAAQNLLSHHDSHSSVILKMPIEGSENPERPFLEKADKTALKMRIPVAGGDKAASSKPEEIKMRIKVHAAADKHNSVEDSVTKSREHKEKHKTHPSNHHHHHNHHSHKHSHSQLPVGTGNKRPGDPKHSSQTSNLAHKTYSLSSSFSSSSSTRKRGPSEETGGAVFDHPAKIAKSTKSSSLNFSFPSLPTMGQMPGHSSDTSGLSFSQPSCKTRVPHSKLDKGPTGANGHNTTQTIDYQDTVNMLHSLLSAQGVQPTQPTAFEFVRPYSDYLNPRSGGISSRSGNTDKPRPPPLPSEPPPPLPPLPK

`CS(=N)(=O)Cc1cccc(Nc2ncnc(-c3ccc(F)cc3OCc3ccc(F)cc3)n2)c1` (single isomer, unassigned) [Example 56.a, 4-{4-Fluoro-2-[(4-fluorobenzyl)oxy]phenyl}-N-{3-[(S-methylsulfonimidoyl)methyl]phenyl}-1,3,5-triazin-2-amine]: the IC50 in assay [1] came out at 340 nM; against CDK2/CycE, 560 nM; on CDK9/CycT1, 4 nM; in assay [2] it was 350 nM; in assay [3] it was 430 nM; in assay [4] it was 270 nM. Moreover, the IC50 in assay [5] and in assay [6] was 340 nM each time.
In the case of `COc1cc(F)ccc1-c1ncnc(Nc2cc(Cl)cc(CS(C)(=N)=O)c2)n1` (racemic) [Example 64, (rac)-N-{3-Chloro-5-[(S-methylsulfonimidoyl)methyl]phenyl}-4-(4-fluoro-2-methoxyphenyl)-1,3,5-triazin-2-amine], the IC50 in assay [1] stood at 290 nM; on CDK2/CycE it was 250 nM; at CDK9/CycT1 it was 15 nM; in assay [2] it was 400 nM; in assay [3], 350 nM; in assay [4], 280 nM. For the same compound, the figures for the IC50 in assay [5] and in assay [6] were 360 nM and 320 nM, respectively.
As for `CCOC(=O)N=S(C)(=O)Cc1cc(F)cc(Nc2ncnc(-c3ccc(F)cc3OC)n2)c1` (racemic) [Example 51, (rac)-Ethyl [(3-fluoro-5-{[4-(4-fluoro-2-methoxyphenyl)-1,3,5-triazin-2-yl]amino}benzyl)(methyl)oxido-λ^6-sulfanylidene]carbamate], the IC50 was found to be 240 nM in assay [1]; 430 nM at CDK2/CycE; 300 nM in assay [2]; 290 nM in assay [3]; 240 nM in assay [4]; 230 nM in assay [5]. Also, in assay [6], the IC50 amounted to 340 nM.
In the case of `CS(=N)(=O)Cc1cccc(Nc2ncnc(-c3ccc(F)cc3OCC3CCCCC3)n2)c1` (racemic) [Example 55, (rac)-4-[2-(Cyclohexylmethoxy)-4-fluorophenyl]-N-{3-[(S-methylsulfonimidoyl)methyl]phenyl}-1,3,5-triazin-2-amine], the IC50 turned out to be 990 nM in assay [1]; 2200 nM at CDK2/CycE; 10 nM against CDK9/CycT1; 1000 nM in assay [2]; 890 nM in assay [3]; 850 nM in assay [4]. For the same compound, the IC50 in assay [5] came out at 980 nM.
In the case of `COc1cc(F)ccc1-c1ncnc(Nc2ccc(Cl)c(CS(C)(=N)=O)c2)n1` (racemic) [Example 59, (rac)-N-{4-Chloro-3-[(S-methylsulfonimidoyl)methyl]phenyl}-4-(4-fluoro-2-methoxyphenyl)-1,3,5-triazin-2-amine], the IC50 came out at 1400 nM on CDK2/CycE, 26 nM at CDK9/CycT1 and 860 nM in assay [2].
Consider `CCOC(=O)N=S(C)(=O)Cc1cccc(Nc2ncnc(-c3ccccc3OC)n2)c1` (racemic) [Example 25, (rac)-Ethyl [(3-{[4-(2-methoxyphenyl)-1,3,5-triazin-2-yl]amino}benzyl)(methyl)oxido-λ^6-sulfanylidene]carbamate], for which the values for the IC50 (at CDK2/CycE; against CDK9/CycT1; in assay [2]) were 6300 nM, 28 nM and 1100 nM, respectively.
Turning to `CS(=N)(=O)Cc1cccc(Nc2ncnc(-c3ccc(F)cc3OCc3cccnc3)n2)c1` (racemic) [Example 66, (rac)-4-[4-Fluoro-2-(pyridin-3-ylmethoxy)phenyl]-N-{3-[(S-methylsulfonimidoyl)methyl]phenyl}-1,3,5-triazin-2-amine], the IC50 is 1600 nM against CDK2/CycE, 24 nM against CDK9/CycT1 and 1700 nM in assay [2].
`CS(=N)(=O)Cc1cccc(Nc2ncnc(-c3ccc(F)cc3OCCCC(F)(F)F)n2)c1` (racemic) [Example 100, (rac)-4-[4-Fluoro-2-(4,4,4-trifluorobutoxy)phenyl]-N-{3-[(S-methylsulfonimidoyl)methyl]phenyl}-1,3,5-triazin-2-amine]: the IC50 on CDK2/CycE is 1300 nM; on CDK9/CycT1, 6 nM; in assay [2], 920 nM.
In the case of `COc1cc(F)ccc1-c1ncnc(Nc2cc(F)cc(CS(C)(=N)=O)c2)n1` (racemic) [Example 52, (rac)-4-(4-Fluoro-2-methoxyphenyl)-N-{3-fluoro-5-[(S-methylsulfonimidoyl)methyl]phenyl}-1,3,5-triazin-2-amine], the IC50 in assay [1] is 340 nM; on CDK2/CycE it was 1000 nM; in assay [2], 410 nM; in assay [3] it was 690 nM; in assay [4], 140 nM; in assay [5] it was 650 nM. Moreover, the IC50 in assay [6] was found to be 550 nM.
As for `COc1cc(F)ccc1-c1ncnc(Nc2ccc(Cl)c(CS(C)(=N)=O)c2)n1` (single isomer, unassigned) [Example 59.a, N-{4-Chloro-3-[(S-methylsulfonimidoyl)methyl]phenyl}-4-(4-fluoro-2-methoxyphenyl)-1,3,5-triazin-2-amine], the IC50 against CDK2/CycE amounted to 2900 nM; against CDK9/CycT1, 25 nM; in assay [2], 1100 nM.
`CS(=N)(=O)Cc1cccc(Nc2ncnc(-c3ccc(F)cc3OCC(F)F)n2)c1` (racemic) [Example 95, (rac)-4-[2-(2,2-Difluoroethoxy)-4-fluorophenyl]-N-{3-[(S-methylsulfonimidoyl)methyl]phenyl}-1,3,5-triazin-2-amine]: the results for the IC50 (against CDK2/CycE; against CDK9/CycT1; in assay [2]) were 1800 nM, 21 nM and 1100 nM, respectively.
As for `Cc1cc(COc2cc(F)ccc2-c2ncnc(Nc3cccc(CS(C)(=N)=O)c3)n2)ccc1F` (racemic) [Example 96, (rac)-4-{4-Fluoro-2-[(4-fluoro-3-methylbenzyl)oxy]phenyl}-N-{3-[(S-methylsulfonimidoyl)methyl]phenyl}-1,3,5-triazin-2-amine], the IC50 came out at 350 nM against CDK2/CycE, 3 nM at CDK9/CycT1 and 1000 nM in assay [2].
Take `CS(=N)(=O)Cc1cccc(Nc2ncnc(-c3ccc(F)cc3OCc3ccc(F)c(F)c3)n2)c1` (racemic) [Example 80, (rac)-4-{2-[(3,4-Difluorobenzyl)oxy]-4-fluorophenyl}-N-{3-[(S-methylsulfonimidoyl)methyl]phenyl}-1,3,5-triazin-2-amine]: the results for the IC50 (against CDK2/CycE; on CDK9/CycT1; in assay [2]) were 1000 nM, 13 nM and 730 nM, respectively.
On to `CCOC(=O)N=S(C)(=O)Cc1cccc(Nc2ncnc(-c3cc(F)c(F)cc3OC)n2)c1` (racemic) [Example 9, (rac)-Ethyl [(3-{[4-(4,5-difluoro-2-methoxyphenyl)-1,3,5-triazin-2-yl]amino}benzyl)(methyl)oxido-λ^6-sulfanylidene]carbamate], for which the IC50 in assay [1] stood at 900 nM; against CDK2/CycE it was 690 nM; against CDK9/CycT1, 8 nM; in assay [3], 800 nM; in assay [4], 960 nM; in assay [5], 980 nM. Moreover, the IC50 in assay [6] stood at 1000 nM.
